The subject of one assay is Sprague-Dawley rats. Put plainly: Streptozotocin rat model of diabetic retinopathy. It counts as in vivo. As to conditions: 10 mg/ml eye drops for two weeks, STZ diabetic rats. As for the experimental part:
Animals were maintained on a 12 h light-dark cycle, at 22-25° C. Food and water were available ad libitum. Diabetes was induced by a single dose of streptozotocin (STZ, 70 mg/kg, ip, Sigma-Aldrich, Germany) dissolved in sodium citrate (0.1M) buffer (diabetic group) after a fasting period of 8-12 hours. Animals with blood glucose levels>350 mg/d1, after 72 hours post-STZ injection were considered diabetic. Both male and female Sprague-Dawley rats were used in the study. Three experimental groups were employed, namely Control (n=6), Diabetic (n=7), and Diabetic-treated group (n=6). Example 17 (10 mg/ml) dissolved in DMSO was administered as eye drops, for two weeks, starting two (2) days after STZ administration. Animals were euthanized 24 hours after the last treatment, and their eyes were removed. […]
Antibodies raised against the macroglia marker glial fibrillary acidic protein (GFAP) were employed. Quantification using the public domain ImageJ 1.43m software was employed for the mean gray value [integrated density (fluorescence density)/delineated area] calculated and expressed as a percentage of the mean gray value of the control. Statistical analysis of the data was performed using GraphPad Prism v5.0 (San Diego, Calif., USA) and differences between groups were evaluated by one-way analysis of variance (ANOVA) with Neuman-Keuls. […]

Another assay relates to C57B16/J mice. Put plainly: Mouse model of acute ischemic stroke by transient middle cerebral artery occlusion (tMCAO). It counts as in vivo. As to conditions: 2.56 mg/kg ip, 6 times once per hour, from 1 hour after reperfusion or 30 min before reperfusion, 24 h. How it is done:
A mouse model of acute ischemic stroke by transient middle cerebral artery occlusion (tMCAO) was used. The model has been described by Kleinschnitz C, et al. 2010, J Exp Med 203(3):513-518. C57B16/J mice were anesthetized with isoflurane (0.8% in oxygen). The animal was placed on a heating-pad, and rectal temperature was maintained at 37.0° C. using a servo-controlled rectal probe-heating pad (Cibertec, Spain). Transient cerebral ischemia was induced using an intraluminal filament technique. Using a surgical microscope (Tecnoscopio OPMI pico, Carl Zeiss, Meditec Iberia SA, Spain), a midline neck incision was made and the right common and external carotid arteries were isolated and permanently ligated. […]
After sacrificing the mice (24 h reperfusion), brains were quickly removed and cut in four 2-mm thick coronal sections using a mouse brain slice matrix (Harvard Apparatus, Spain). […] Indirect infarct volumes were calculated by volumetry (ImageJ software, National Institutes of Health, USA) according to the following equation: Vindirect (mm^3)=Vinfarct×(1−(Vih−Vch)/Vch), where the term (Vih−Vch) represents the volume difference between the ischemic hemisphere and the control hemisphere and (Vih−Vch)/Vch expresses this difference as a percentage of the control hemisphere (FIGS. 7 and 9).

In a further assay the test system is Human islet cells. Put plainly: Effects on human islet cell viability. It counts as cell-based. As to conditions: 48 h, compound 1 μM. As for the experimental part:
Human islet cells were incubated at control condition, with the cytokines IL-1β (20 ng/ml)+IFN-γ (20 ng/ml), or with palmitate (1.5 mM+2% BSA)+high glucose (20 mM) (PH) for 2 days with or without Nox1 inhibitor ML-171 (2 μM), Nox2 inhibitor Phos-I2 (2 μM) or Example 17 (1 μM). Islets were photographed in an inverted fluorescence microscope and the intensities of red (PI) and blue (Bisbenzimide) signals were quantified using Image J software. Results are indicated as mean±S.E.M for 7 human islet donors.

The structures appear in SMILES notation.

Consider `Cc1ccccc1CCNS(=O)(=O)c1c(Cl)cc(Br)cc1Cl` [Example 17, 4-bromo-2,6-dichloro-N-[2-(2-methylphenyl)ethyl]benzene-1-sulfonamide], for which the “GFAP immunoreactivity in retina” value with Sprague-Dawley rats is given as “attenuated the diabetes induced increase in GFAP immunoreactivity”. Further, the “brain damage (TTC stained coronal brain sections)” value in the assay with C57B16/J mice is “significant reduction in brain damage”. Also, the infarct volume entry with C57B16/J mice (compared to control animals) is “substantial reduction of infarct volume”. Also, the “human islet cell death with cytokines” value with Human islet cells (IL-1β (20 ng/ml)+IFN-γ (20 ng/ml)) was “protected both against cytokines and high glucose+palmitate”. Moreover, in the assay with Human islet cells (palmitate (1.5 mM)+high glucose (20 mM)), the “human islet cell death with high glucose+palmitate” value is “protected both against cytokines and high glucose+palmitate”.

These data come from patent US12202790B2, “Sulfonamide derivatives having selective Nox inhibiting activity” (GLUCOX BIOTECH AB, priority 2018, dated 2025).
